# Data reported in ChEMBL document CHEMBL1201862, “PubChem BioAssay data set” (2004).
# Activity calls are given as the source filed them.
# How the values were obtained:
# [1] = viability loss in CEM21 cells – cell-based, CellTiter-Glo luminescence, cherry-picked, cytotoxicity control for viral fusion inhibitor project, dose response (AID 652042); format: functional;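 note: potency for signal decrease meaning cytotoxicity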
# [2] = blockers of HIV-1 ZM109 envelope-driven cell-cell fusion – HeLa effector, CEM target cells, luciferase, cherry-pick, dose response (AID 652058); format: functional, cell-based;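 note: luciferase signal from HIV-1 Env mediated cell-cell fusion of effector and target cells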
# [3] = THP-1 cell cytotoxicity, dose response, cytotoxicity control for non-replicating M. tuberculosis project (AID 489025); format: functional
# [4] = fluconazole-exposed Candida albicans growth modulators – fluorescence, retest, confirmation (AID 2467); format: functional, cell-based
# [5] = HepG2 cell cytotoxicity, dose response, cytotoxicity control for non-replicating M. tuberculosis project (AID 489018); format: functional; conditions: Mycobacterium tuberculosis
# cells = format: functional
# [6] = decrease of insulin promoter-GFP reporter – imaging, high-content screening, mouse beta cells (AID 1628); format: functional; conditions: MIN6
# [7] = off-target signal loss in HeLa-CEM21 co-culture – HeLa F-luc CTL cells, cherry-picked, counter-screen for HIV-1 Env fusion inhibitor project, dose response (AID 652040); format: functional, cell-based;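 note: potency for signal decrease marking cytotoxic or nonspecific inhibition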
# [8] = NIH-3T3 fibroblast cytotoxicity, dose response, cytotoxicity control, cell-based, fluorescence, Alamar Blue, secondary assay (AID 2327); format: functional;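 note: NIH-3T3 mouse fibroblasts cultured with fluconazole at 8 µg/mL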
# [9] = MIN6 cell viability loss – mouse insulinoma, cytotoxicity control, dose response (AID 2122); format: functional;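 note: confirmatory high-throughput counterscreen run to flag cytotoxic compounds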
# [10] = blockers of HIV-1 envelope-mediated cell-cell fusion – cherry-pick, dose response (AID 652057); format: functional, cell-based
# [11] = HIV-1 AD8 envelope cell-cell fusion blockers – cherry-pick, dose response (AID 652062); format: functional, cell-based;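 note: luciferase signal from cell-cell fusion driven by HIV-1 clade B AD8 Env; potency is for inhibitors of fusion seen as a drop in luminescence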
# [12] = molecular target: Polyadenylate-binding protein 1 (Homo sapiens, UniProt P11940); assay: blockers of PABP interaction with poly(A) – biochemical, fluorescence polarization, […] (AID 2014)
# [13] = molecular target: T1, Intestinal-type alkaline phosphatase (Mus musculus, UniProt P24822); assay: PubChem AID 488785; format: functional
# [14] = molecular target: Eukaryotic translation initiation factor 4H (Homo sapiens, UniProt Q15056); assay: eIF4H binding inhibition – biochemical, uHTS, fluorescence polarization, translation initiation inhibitor project, primary screen (AID 2012)
# [15] = molecular target: T2, Alkaline phosphatase, tissue-nonspecific isozyme (Homo sapiens, UniProt P05186); assay: TNAP enzyme inhibition by screening hits, dose response, selectivity assay for mouse IAP inhibitor project, biochemical, human TNAP, uHTS hits (AID 488906); format: functional
# T2 sequence (P05186 whole entry): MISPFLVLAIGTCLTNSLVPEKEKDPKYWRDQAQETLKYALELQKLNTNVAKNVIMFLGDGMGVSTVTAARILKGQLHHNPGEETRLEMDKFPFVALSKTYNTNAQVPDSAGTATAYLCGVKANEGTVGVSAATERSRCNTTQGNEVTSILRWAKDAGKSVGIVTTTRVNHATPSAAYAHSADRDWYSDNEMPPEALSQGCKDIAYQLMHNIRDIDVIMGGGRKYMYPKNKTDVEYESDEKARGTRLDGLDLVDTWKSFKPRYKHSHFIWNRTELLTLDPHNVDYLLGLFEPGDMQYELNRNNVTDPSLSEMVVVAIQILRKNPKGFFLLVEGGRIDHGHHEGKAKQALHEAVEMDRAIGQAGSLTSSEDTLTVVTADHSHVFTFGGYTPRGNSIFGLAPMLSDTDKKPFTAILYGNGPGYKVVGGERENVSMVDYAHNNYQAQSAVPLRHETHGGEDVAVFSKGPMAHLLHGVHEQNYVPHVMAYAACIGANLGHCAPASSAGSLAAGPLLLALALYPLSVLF
# [16] = molecular target: T3, Intestinal-type alkaline phosphatase (Homo sapiens, UniProt P09923); assay: inhibition of human intestinal alkaline phosphatase – biochemical, dose response (AID 488876); format: functional
# Beta-galactosidase = Beta-galactosidase (Escherichia coli, UniProt Q8VNN2); format: functional
# [17] = molecular target: T4, Delta-type opioid receptor (Homo sapiens, UniProt P41143); assay: HTS Image-Based Screen for Agonists of the DOR Receptor. [Related pubchem assays (depositor defined):AID1777, AID1786, AID2133]; format: functional
# [18] = molecular target: T4, Delta-type opioid receptor; assay: HTS Image-Based Screen for Antagonists of the DOR Receptor. [Related pubchem assays (depositor defined):AID1777, AID1785, AID1786, AID2133]; format: functional
# Streptokinase A = molecular target: T5, Streptokinase A (Streptococcus pyogenes serotype M1, UniProt P10520); assay: viability-normalized secreted streptokinase activity reduction – plasminogen activation absorbance, OD405, dose response (AID 1914); format: functional, Streptococcus pyogenes M1 GAS;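 note: secreted streptokinase activity via plasminogen activation per viability signal from cell pellet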
# T5 sequence (P10520 whole entry): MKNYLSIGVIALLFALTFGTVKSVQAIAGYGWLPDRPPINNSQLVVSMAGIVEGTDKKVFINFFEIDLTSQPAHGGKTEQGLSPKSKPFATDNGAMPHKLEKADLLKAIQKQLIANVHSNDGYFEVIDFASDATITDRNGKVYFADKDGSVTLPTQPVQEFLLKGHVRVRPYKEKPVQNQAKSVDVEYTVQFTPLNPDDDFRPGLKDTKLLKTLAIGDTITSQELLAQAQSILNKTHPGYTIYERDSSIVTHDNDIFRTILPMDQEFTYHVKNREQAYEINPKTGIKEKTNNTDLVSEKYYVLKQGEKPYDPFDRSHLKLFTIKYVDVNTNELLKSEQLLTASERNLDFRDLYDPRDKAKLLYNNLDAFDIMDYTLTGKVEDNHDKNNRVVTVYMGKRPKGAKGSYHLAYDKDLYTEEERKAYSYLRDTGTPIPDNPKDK
# Paired box protein Pax-8 = Paired box protein Pax-8 (Homo sapiens, UniProt Q06710); assay: PAX8 transcriptional activity inhibition in RMG-I – RMG-I cells, luciferase, cherry-pick, dose response (AID 687027); format: functional, cell-based;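 note: luciferase reporter driven by Pax8 target thyroperoxidase promoter measured by SteadyGlo luminescence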
# [19] = molecular target: T6, Kappa-type opioid receptor (Homo sapiens, UniProt P41145); format: functional
# Mu-type opioid receptor = Mu-type opioid receptor (Homo sapiens, UniProt P35372); assay: HTS Image-Based Screen for Agonists of the MOR Receptor. [Related pubchem assays (depositor defined):AID1777, AID1785, AID1786, AID2133]; format: functional;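 note: imaging of beta-arrestin GFP recruitment into spots after receptor activation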
# [20] = molecular target: T6, Kappa-type opioid receptor; format: functional; remark: listed apart in the source
# [21] = molecular target: T3, Intestinal-type alkaline phosphatase; assay: activation of human intestinal alkaline phosphatase – biochemical, luminescent, uHTS hits, set 2, dose response (AID 488817); format: functional;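 note: potency of activators that raise enzyme activity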
# [22] = molecular target: T2, Alkaline phosphatase, tissue-nonspecific isozyme; assay: activation of tissue-nonspecific alkaline phosphatase – biochemical, TNAP isozyme, human IAP uHTS hits, selectivity assay for human IAP activator project, dose response (AID 488886); format: functional;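 note: potency of compounds raising TNAP activity as a selectivity check on IAP activators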
# [23] = molecular target: T3, Intestinal-type alkaline phosphatase; assay: human intestinal alkaline phosphatase activators, dose response, biochemical, luminescence, uHTS hits (AID 463120); format: functional
# [24] = molecular target: T1, Intestinal-type alkaline phosphatase; assay: PubChem AID 488875; format: functional
# [25] = molecular target: T7, Short transient receptor potential channel 4 (Mus musculus, UniProt Q9QUQ5); assay: block of DAMGO-driven TRPC4 calcium entry – cell-based, HEK293 TRPC4/mu-opioid, Fluo-4 calcium, dose response (AID 434942); format: functional;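 note: potency of inhibitors blocking the TRPC4 calcium response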
# T7 sequence (Q9QUQ5 whole entry): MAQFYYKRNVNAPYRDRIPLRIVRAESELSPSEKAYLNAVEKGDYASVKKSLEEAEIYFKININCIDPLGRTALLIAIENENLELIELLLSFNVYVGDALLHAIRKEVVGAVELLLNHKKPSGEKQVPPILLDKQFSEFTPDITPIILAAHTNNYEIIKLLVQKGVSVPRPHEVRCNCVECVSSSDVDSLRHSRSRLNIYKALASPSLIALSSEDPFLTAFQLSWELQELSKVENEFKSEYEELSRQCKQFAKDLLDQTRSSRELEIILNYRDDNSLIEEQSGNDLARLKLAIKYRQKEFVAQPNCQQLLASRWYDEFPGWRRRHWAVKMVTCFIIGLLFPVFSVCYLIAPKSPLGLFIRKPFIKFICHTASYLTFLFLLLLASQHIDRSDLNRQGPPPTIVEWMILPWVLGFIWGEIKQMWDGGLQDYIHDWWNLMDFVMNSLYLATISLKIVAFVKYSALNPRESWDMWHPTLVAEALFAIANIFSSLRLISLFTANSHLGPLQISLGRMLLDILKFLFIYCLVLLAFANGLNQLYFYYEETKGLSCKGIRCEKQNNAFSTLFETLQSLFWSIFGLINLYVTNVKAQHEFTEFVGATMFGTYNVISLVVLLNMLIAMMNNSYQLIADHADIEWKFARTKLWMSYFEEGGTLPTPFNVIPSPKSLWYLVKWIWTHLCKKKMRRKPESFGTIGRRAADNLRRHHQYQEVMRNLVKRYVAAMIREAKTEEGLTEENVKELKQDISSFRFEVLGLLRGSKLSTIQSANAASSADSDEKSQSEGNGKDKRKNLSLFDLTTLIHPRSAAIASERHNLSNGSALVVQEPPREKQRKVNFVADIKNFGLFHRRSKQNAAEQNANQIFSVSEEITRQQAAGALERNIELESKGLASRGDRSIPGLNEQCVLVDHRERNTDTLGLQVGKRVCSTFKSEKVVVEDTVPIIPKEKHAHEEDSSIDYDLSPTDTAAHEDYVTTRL
# T3 sequence (P09923 whole entry): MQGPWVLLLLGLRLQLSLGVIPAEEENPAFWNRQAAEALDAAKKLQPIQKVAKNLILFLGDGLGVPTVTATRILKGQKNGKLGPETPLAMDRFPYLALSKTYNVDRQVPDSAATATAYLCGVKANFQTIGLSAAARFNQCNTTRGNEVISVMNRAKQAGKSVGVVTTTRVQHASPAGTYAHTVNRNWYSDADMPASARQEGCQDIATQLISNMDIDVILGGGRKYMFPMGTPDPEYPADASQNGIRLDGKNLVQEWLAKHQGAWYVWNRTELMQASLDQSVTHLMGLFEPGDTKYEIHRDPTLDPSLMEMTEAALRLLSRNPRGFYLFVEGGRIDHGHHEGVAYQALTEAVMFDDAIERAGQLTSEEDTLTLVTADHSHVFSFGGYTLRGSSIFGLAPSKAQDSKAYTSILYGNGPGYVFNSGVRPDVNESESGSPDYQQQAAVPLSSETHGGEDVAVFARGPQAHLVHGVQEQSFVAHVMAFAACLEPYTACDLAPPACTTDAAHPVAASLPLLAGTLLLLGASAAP
# T4 sequence (P41143 whole entry): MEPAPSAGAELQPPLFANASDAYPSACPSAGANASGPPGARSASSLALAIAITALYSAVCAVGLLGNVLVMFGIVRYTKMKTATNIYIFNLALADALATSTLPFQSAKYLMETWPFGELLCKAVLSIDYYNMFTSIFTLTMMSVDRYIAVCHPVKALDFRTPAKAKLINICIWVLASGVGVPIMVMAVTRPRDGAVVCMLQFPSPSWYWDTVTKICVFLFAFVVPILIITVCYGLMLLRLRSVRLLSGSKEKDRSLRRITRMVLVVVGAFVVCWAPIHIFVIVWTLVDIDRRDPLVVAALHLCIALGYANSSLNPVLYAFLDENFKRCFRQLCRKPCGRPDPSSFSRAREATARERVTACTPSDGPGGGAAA
# T6 sequence (P41145 whole entry): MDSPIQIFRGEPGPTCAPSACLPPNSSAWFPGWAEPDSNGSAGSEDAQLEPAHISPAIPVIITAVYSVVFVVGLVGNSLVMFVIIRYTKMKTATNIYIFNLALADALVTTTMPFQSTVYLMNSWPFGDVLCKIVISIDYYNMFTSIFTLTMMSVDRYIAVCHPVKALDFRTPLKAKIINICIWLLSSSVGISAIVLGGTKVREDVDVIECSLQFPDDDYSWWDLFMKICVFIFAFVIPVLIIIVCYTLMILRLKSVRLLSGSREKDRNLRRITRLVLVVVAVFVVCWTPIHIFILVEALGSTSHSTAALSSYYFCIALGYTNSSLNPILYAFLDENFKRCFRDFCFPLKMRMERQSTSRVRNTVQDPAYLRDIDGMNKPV
# T1 sequence (P24822 whole entry): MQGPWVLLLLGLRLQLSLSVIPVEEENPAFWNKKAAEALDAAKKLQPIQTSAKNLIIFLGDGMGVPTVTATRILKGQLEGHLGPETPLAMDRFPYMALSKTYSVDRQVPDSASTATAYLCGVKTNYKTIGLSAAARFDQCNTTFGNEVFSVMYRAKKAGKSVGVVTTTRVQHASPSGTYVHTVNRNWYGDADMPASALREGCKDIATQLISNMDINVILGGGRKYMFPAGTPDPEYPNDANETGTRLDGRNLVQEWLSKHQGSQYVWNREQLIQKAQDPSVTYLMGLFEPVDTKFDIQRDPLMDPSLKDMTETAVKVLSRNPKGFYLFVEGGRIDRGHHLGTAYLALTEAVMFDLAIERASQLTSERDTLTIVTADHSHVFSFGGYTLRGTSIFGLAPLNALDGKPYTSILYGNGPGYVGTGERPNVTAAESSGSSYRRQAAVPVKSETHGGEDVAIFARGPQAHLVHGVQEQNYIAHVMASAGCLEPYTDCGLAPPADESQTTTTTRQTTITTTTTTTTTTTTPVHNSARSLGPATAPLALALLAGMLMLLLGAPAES
# Mu-type opioid receptor, sequence (P35372 whole entry): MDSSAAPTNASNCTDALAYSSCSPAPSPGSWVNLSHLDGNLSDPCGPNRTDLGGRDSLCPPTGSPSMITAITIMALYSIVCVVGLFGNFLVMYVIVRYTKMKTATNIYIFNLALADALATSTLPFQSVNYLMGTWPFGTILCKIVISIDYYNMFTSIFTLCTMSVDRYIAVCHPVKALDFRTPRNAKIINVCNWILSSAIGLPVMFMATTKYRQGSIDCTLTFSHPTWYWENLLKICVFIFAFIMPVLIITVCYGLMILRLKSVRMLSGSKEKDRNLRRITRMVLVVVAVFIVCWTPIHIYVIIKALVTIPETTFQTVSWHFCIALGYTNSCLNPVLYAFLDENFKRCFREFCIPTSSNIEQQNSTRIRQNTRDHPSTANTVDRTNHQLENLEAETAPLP
# Paired box protein Pax-8, sequence (Q06710 whole entry): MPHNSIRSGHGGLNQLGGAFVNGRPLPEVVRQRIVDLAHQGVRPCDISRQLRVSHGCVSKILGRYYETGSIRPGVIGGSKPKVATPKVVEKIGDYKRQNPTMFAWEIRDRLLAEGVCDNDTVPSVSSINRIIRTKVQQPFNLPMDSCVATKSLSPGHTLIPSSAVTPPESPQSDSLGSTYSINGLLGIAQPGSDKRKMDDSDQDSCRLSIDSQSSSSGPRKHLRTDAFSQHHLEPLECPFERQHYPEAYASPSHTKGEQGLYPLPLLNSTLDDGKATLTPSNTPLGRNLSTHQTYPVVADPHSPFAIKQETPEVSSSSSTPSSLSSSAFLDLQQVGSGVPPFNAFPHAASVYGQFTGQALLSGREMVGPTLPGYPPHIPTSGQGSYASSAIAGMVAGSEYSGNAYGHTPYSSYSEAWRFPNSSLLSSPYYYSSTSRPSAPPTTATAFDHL
# Polyadenylate-binding protein 1, sequence (P11940 whole entry): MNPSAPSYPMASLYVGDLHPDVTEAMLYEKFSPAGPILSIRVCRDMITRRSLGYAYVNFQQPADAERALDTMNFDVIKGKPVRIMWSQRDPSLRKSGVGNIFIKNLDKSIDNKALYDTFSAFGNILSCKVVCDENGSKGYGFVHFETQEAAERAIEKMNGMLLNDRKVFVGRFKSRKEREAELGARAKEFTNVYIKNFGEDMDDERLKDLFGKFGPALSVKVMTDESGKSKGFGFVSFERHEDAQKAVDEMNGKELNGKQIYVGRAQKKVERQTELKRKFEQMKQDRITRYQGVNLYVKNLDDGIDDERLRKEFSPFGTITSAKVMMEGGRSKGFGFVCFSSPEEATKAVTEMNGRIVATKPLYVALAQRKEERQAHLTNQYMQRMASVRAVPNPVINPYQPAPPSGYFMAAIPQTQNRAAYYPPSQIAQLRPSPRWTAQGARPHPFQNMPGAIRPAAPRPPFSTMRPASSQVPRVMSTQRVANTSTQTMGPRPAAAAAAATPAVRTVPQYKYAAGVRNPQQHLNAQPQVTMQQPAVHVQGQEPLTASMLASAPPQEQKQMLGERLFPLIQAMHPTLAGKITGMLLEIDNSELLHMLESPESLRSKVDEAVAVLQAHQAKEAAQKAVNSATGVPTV
# Beta-galactosidase, sequence (Q8VNN2 whole entry): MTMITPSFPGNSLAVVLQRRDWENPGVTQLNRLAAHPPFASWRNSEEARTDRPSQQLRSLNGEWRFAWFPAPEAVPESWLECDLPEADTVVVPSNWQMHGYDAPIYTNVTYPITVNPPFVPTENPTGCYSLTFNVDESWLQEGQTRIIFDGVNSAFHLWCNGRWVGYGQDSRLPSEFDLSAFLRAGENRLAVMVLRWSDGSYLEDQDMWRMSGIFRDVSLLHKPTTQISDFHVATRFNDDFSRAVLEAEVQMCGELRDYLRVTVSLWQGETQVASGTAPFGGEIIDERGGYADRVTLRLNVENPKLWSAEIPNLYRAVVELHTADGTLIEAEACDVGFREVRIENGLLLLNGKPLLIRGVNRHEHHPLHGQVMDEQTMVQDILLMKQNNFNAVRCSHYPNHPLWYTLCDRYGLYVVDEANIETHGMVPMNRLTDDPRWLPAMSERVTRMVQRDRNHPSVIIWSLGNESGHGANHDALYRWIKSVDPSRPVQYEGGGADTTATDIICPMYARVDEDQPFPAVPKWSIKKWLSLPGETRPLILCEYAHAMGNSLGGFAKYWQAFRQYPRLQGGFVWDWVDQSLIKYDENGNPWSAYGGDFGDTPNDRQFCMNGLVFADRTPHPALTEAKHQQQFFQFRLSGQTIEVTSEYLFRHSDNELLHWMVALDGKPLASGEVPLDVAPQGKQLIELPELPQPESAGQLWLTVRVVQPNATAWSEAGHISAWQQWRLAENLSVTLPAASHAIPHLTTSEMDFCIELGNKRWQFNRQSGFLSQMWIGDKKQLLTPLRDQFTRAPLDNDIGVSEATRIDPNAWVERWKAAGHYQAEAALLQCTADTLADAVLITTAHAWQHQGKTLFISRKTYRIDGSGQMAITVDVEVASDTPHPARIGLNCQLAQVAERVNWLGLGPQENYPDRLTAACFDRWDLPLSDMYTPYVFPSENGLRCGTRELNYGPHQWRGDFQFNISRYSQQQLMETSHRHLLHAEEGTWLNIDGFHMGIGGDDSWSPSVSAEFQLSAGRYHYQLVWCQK
smiles,measurement,setting,value
CC(C)[C@@H]1CC[C@@H](C)C[C@H]1OC(=O)C[n+]1cc(-c2ccc(Cl)cc2)n2c1CCCCC2,AC50,[1],8.93 µM (active)
same,AC50,[2],8.56 µM (active)
same,CC50,[3],4.52 µM (active)
same,EC50,[4],0.225 µM (active)
same,CC50,[5],> 20 µM (active)
same,IC50,cells,6.86 µM (active)
same,IC50,[6],1.14 µM (active)
same,AC50,[7],37 µM (active)
same,EC50,[8],23.8 µM (inconclusive)
same,IC50,[9],1.16 µM (active)
same,AC50,[10],16.3 µM (active)
same,AC50,[11],9.97 µM (active)
COc1cc(OC)c2c(c1O)OC(c1ccccc1)CC2=O (stereo not given),IC50,[12],91.1 µM (active)
same,IC50,[13],21.8 µM (active)
same,IC50,[14],48.6 µM (active)
same,IC50,[15],> 100 µM (inactive)
same,IC50,[16],> 100 µM (inactive)
O=c1nc(-c2ccccn2)[nH]c2sc(-c3ccccc3)cc12,EC50,Beta-galactosidase,> 31.5 µM (inactive)
same,EC50,[17],> 32 µM (inactive)
same,IC50,[18],> 32 µM (inactive)
same,EC50,Streptokinase A,> 150 µM (not active)
same,AC50,Paired box protein Pax-8,14 µM (active)
same,IC50,[19],> 32 µM
same,EC50,Mu-type opioid receptor,> 32 µM (inactive)
same,IC50,[20],1.79 µM (active)
CCOc1ccccc1CN1CCC(n2nccc2NC(=O)CCc2ccccc2)CC1,EC50,[21],80.1 µM (active)
same,EC50,[22],74.4 µM (active)
same,EC50,[23],59.9 µM (active)
same,EC50,[24],80.6 µM (active)
same,EC50,[25],0.473 µM (active)
